The target of the test is Epidermal growth factor receptor (Homo sapiens, UniProt P00533). In words: Inhibition of EGFR (unknown origin).

This passage reports IC50 results from ChEMBL document CHEMBL3046694, “3D QSAR STUDIES OF INHIBITORS OF EPIDERMAL GROWTH FACTOR RECEPTOR [EGFR] USING CoMFA AND GFA METHODOLOGIES” (Med Chem Res, 2004).

Epidermal growth factor receptor, sequence (P00533 whole entry): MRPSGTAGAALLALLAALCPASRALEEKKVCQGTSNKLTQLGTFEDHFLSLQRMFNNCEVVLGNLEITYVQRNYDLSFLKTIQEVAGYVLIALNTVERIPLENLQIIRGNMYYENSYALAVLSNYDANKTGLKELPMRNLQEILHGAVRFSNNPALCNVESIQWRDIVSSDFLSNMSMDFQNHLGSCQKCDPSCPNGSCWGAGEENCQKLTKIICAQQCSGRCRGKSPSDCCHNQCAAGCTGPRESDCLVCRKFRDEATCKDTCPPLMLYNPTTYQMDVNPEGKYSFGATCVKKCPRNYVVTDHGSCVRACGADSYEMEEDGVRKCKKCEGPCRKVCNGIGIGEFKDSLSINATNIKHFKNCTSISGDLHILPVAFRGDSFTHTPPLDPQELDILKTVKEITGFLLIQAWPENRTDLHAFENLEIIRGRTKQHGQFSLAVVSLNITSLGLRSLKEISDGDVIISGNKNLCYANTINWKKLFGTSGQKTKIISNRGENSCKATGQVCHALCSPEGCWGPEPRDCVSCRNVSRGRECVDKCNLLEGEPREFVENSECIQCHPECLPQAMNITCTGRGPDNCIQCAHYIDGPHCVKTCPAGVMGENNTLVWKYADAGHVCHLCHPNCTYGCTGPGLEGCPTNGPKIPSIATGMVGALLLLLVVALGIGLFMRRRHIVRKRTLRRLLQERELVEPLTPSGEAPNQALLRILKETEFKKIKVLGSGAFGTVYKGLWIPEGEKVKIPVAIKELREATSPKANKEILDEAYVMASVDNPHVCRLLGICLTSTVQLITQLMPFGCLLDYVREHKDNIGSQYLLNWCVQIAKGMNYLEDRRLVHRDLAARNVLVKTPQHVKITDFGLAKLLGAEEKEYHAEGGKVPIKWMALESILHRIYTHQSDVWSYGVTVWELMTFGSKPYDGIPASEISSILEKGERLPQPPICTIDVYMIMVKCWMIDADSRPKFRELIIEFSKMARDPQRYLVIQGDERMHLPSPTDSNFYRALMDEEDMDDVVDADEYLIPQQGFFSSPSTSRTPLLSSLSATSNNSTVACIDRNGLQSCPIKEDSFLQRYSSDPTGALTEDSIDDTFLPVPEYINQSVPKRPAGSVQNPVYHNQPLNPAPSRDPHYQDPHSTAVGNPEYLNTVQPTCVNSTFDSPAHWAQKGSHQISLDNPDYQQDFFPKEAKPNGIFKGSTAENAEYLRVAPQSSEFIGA

The molecule `COCC#CC(=O)Nc1ccc2ncc(C#N)c(Nc3cccc(Br)c3)c2c1` had an IC50 of 960 nM.
As to `COCCOCC#CC(=O)Nc1ccc2ncc(C#N)c(Nc3cccc(Br)c3)c2c1`, the concentration for half-maximal inhibition (IC50) came out at 930 nM.
The same measure for `CC#CC(=O)Nc1cc2c(Nc3cccc(Br)c3)c(C#N)cnc2cc1OC`: 190 nM; for `COc1cc2ncc(C#N)c(Nc3cccc(Br)c3)c2cc1NC(=O)C#CCN(C)C`: 90 nM; for `COC[C@@H]1CCCN1CC#CC(=O)Nc1ccc2ncc(C#N)c(Nc3cccc(Br)c3)c2c1`: 150 nM.
The same measure for `C=C(CN(C)C)C(=O)Nc1cc2c(Nc3ccc(F)c(Cl)c3)c(C#N)cnc2cc1OCC`: 560 nM.
Take `CCCNCC#CC(=O)Nc1ccc2ncc(C#N)c(Nc3cccc(Br)c3)c2c1`: it took 130 nM to reach half-maximal inhibition (IC50).
Molecule `COc1cc2ncc(C#N)c(Nc3cccc(Br)c3)c2cc1NC(=O)/C=C/CN(C)C` showed an IC50 of 790 nM.
The value for `C=CC(=O)Nc1ccc2ncc(C#N)c(Nc3cccc(Br)c3)c2c1` was 590 nM; that for `CC#CC(=O)Nc1ccc2ncc(C#N)c(Nc3cccc(Br)c3)c2c1` was 940 nM; that for `CN(C)C/C=C/C(=O)Nc1ccc2ncc(C#N)c(Nc3cccc(Br)c3)c2c1` was 310 nM.
The same measure for `CN(C)C/C=C/C(=O)Nc1ccc2ncc(C#N)c(Nc3ccc(F)c(Cl)c3)c2c1`: 650 nM; for `C=CC(=O)Nc1cc2c(Nc3cccc(Br)c3)c(C#N)cnc2cc1OC`: 810 nM.
The same measure for `COCC#CC(=O)Nc1cc2c(Nc3cccc(Br)c3)c(C#N)cnc2cc1OC`: 791 nM; for `N#Cc1cnc2ccc(NC(=O)C#CCN3CCSCC3)cc2c1Nc1cccc(Br)c1`: 550 nM.

Broadly, the IC50 is the concentration at which inhibition is half-maximal. Lower therefore signals higher potency.
